Data: patent publication US11993603B2, “Preparation for 6-amino-1H-pyrazolo[3,4-d]pyrimidine-based JAK kinase inhibitor and application thereof” (INSTITUTE OF MATERIA MEDICA, CHINESE ACADEMY OF MEDICAL …, priority 2018, dated 2024)
Read-outs that look alike come from different tables or passages of the source.

How the values were obtained:
Format in all cases: biochemical
JAK-2 = JAK-2 (Homo sapiens (Human), UniProt O60674); test: Inhibition test on JAK-2 kinase (FRET peptide substrate assay); conditions: kinase 1 nM, 1 h at room temperature
Description: (§1) Experiment Example (Inhibition Tests on JAK-1, JAK-2 and JAK-3 Kinases)
(§2) To evaluate the inhibitory activity of the compound on JAK-1, JAK-2 and JAK-3 kinases
(§3) A proteolytic enzyme is coupled to exert different proteolysis on a specific phosphorylated and nonphosphorylated peptide substrate based on fluorescence resonance energy transfer (FRET). Both ends of the peptide substrate were respectively labeled FRET energy donor coumarin and energy receptor fluorescein, and at this time, the donor was stimulated to produce energy transfer when the donor is close to a receptor.
(§4) In Kinase Reaction, JAK-1, JAK-2 or JAK-3 may transfer γ-phosphoric acid in ATP onto a single tyrosine residue of a peptide substrate; and there were JAK-1, JAK-2 or JAK-3 inhibitors in the system, γ-phosphoric acid groups on ATP would be not transferred onto the peptide substrate, thus resulting in the failure of phosphorylation. An evaluation experiment was designed based on the principle, a peptide substrate was designed with kinase phosphorylation sites, namely, protein restriction enzyme cutting sites; and both ends thereof were respectively connected with 2 fluorophores as a donor and a receptor respectively; if the kinase kept activity in the system, a γ-phosphonic acid group was transferred onto restriction enzyme cutting sites of the substrate, so that the γ-phosphonic acid group would not be cut and separated into two segments by a protease; moreover, under the stimulation of a laser having a specific wavelength, energy from a segment of fluorescence would be transferred onto another end of fluorophores, thus emitting energy. Otherwise, after kinase activity was inhibited, phosphoric acid groups would be not transferred, and restriction enzyme cutting sites in the substrate would be cut by a […] in the system to separate the substrate into two segments, thereby no energy transfer of fluorescence occurred. Based on this, the activity of the kinase was evaluated.
(§5) In this experiment, a 10 μl kinase reaction system was selected, firstly, 2.5 μl kinase (concentration: 1 nM), 2.5 μl peptide substrate (concentration: 2 μM), 2.5 μl ATP (concentration: […]) and 2.5 μl compound were added to each system for reaction for 1 h at room temperature, and then a 5 μl test solution was added for reaction for 1 h at room temperature, then a 5 μl stop buffer was added. A microplate reader (Synergy H1, BioTek, USA) was used to measure fluorescence intensity (emission intensity of coumarin at 445 nm and emission intensity of fluorescein at 520 nm were detected under the stimulation of 400 nm). The inhibitory activity of each compound was calculated, where it was believed that fluorescence intensity of a well not containing the kinase was 100% inhibited.

JAK-3 = JAK-3 (Homo sapiens (Human), UniProt P52333); test: Inhibition test on JAK-3 kinase (FRET peptide substrate assay)
Description: as §1, §2, §3, §4, §5

JAK-1 = JAK-1 (Homo sapiens (Human), UniProt P23458); test: Inhibition test on JAK-1 kinase (FRET peptide substrate assay); conditions: kinase 1 nM, 1 h at room temperature
Description: as §1, §2, §3, §4, §5

[1] = kinase 1 nM, 1 h at room temperature, read-out: IC50 (nM) JAK-3

Chain of JAK-1 (P23458 whole entry): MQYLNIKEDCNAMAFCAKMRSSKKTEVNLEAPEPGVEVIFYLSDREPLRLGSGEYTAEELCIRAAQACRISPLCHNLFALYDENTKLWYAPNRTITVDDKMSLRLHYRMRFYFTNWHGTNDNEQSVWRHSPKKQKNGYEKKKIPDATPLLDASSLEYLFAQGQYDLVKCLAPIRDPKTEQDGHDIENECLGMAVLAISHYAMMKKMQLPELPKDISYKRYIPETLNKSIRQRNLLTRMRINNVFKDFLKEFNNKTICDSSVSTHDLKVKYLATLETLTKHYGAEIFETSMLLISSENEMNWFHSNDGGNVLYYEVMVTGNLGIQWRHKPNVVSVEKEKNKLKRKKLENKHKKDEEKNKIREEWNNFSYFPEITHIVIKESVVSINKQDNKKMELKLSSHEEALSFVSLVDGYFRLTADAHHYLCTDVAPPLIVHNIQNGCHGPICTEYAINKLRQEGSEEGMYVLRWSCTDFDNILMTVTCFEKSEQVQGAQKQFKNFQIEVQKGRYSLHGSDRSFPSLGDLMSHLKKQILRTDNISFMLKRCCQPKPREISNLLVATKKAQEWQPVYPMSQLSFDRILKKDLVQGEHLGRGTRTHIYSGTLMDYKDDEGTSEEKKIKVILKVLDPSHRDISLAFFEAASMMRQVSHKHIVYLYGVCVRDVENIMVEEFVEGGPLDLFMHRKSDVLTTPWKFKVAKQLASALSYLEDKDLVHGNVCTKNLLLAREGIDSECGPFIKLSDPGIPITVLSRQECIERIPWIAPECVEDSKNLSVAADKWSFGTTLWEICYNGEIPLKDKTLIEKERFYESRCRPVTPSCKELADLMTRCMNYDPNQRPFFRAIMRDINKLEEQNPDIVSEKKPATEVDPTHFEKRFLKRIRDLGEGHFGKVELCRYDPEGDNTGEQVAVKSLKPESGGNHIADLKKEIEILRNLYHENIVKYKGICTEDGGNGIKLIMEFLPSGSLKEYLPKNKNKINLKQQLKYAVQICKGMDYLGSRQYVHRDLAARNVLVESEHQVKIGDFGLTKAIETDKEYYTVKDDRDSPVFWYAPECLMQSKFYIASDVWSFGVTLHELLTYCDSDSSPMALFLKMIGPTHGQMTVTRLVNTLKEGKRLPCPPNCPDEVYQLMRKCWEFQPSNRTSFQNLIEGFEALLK
Chain of JAK-2 (O60674 whole entry): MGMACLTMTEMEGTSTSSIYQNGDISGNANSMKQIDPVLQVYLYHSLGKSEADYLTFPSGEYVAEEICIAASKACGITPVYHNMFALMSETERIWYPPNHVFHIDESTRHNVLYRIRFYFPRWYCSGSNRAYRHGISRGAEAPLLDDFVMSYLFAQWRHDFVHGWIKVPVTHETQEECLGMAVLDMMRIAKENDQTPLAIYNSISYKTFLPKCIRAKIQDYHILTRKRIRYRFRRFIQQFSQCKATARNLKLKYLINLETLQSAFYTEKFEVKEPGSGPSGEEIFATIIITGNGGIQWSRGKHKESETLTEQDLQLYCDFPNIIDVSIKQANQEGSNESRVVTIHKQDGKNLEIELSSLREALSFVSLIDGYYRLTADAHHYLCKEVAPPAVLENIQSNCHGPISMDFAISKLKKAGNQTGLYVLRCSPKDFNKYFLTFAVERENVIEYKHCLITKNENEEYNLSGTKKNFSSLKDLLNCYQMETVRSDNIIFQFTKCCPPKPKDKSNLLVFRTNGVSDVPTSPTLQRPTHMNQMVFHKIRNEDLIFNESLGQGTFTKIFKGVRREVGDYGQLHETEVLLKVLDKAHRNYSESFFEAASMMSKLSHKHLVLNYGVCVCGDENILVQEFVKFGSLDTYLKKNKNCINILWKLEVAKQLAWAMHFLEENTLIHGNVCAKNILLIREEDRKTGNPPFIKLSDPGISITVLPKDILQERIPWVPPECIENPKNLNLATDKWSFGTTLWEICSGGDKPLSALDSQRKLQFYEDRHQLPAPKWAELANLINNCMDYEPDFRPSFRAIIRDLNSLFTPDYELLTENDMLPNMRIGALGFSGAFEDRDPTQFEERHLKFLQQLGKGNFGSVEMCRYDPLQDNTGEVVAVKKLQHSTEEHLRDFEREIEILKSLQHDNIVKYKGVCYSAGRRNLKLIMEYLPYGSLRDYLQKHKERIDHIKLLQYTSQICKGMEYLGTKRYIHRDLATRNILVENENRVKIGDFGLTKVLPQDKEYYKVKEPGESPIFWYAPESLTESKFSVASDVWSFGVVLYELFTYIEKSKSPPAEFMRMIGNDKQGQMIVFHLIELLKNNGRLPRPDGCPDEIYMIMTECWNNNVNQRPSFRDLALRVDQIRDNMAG
Chain of JAK-3 (P52333 whole entry): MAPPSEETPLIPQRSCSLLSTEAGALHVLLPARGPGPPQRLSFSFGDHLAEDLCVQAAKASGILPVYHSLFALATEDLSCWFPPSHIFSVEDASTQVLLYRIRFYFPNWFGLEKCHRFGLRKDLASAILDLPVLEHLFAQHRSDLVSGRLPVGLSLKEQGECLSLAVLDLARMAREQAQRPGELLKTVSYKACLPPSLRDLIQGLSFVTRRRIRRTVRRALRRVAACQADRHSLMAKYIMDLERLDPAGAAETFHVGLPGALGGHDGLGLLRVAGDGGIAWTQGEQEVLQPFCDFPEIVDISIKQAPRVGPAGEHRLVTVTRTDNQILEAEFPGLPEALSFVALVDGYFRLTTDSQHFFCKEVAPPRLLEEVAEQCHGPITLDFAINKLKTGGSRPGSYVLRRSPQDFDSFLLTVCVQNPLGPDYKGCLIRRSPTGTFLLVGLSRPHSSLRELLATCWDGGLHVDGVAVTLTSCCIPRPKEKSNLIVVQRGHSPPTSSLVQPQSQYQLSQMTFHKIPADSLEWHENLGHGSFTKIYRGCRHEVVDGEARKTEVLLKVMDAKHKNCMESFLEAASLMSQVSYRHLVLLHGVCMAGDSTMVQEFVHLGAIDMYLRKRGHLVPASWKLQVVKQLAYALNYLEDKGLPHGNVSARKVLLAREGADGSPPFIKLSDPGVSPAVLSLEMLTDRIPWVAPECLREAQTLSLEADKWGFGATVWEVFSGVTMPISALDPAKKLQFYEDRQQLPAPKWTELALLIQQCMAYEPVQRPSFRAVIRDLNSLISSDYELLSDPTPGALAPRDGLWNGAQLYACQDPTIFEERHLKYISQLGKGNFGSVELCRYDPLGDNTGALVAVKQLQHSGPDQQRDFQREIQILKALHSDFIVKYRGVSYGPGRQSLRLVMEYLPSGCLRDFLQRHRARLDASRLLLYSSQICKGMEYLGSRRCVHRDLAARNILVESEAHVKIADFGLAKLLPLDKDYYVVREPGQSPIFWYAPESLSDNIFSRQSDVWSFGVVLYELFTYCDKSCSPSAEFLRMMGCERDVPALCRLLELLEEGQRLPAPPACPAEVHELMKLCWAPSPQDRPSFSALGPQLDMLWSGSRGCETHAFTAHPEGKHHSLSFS

| SMILES | IC50 (JAK-2) [nM] | IC50 (JAK-3; differs from Table 5, read-out: JAK-3 inhibitory activity IC50) [nM] | IC50 (JAK-3; [1]) [nM] | IC50 (JAK-1) [nM] |
| --- | --- | --- | --- | --- |
| C=CC(=O)Nc1cccc(Cn2ncc3cnc(Nc4cnn(CCOC)c4)nc32)c1 [Example 1, N-(3-((6-((1-(2-methoxyethyl)-1H-pyrazol-4-yl)amino)-1H-pyrazolo[3,4-d]pyrimidine-1-yl)methyl)phenyl)acrylamide] | 747 | 0.085 | 1.4 | – |
| C=CC(=O)Nc1cccc(Cn2ncc3cnc(Nc4cnn(C)c4)nc32)c1 [Example 2] | 941 | – | 2.2 | 1390 |
| C=CC(=O)Nc1cccc(Cn2ncc3cnc(Nc4cnn(CCO)c4)nc32)c1 [Example 3, N-(3-((6-((1-(2-hydroxyethyl)-1H-pyrazol-4-yl)amino)-1H-pyrazolo[3,4-d]pyrimidin-1-yl)methyl)phenyl)acrylamide] | 4220 | – | 0.13 | 829 |
| C=CC(=O)Nc1cccc(Cn2ncc3cnc(Nc4ccccc4)nc32)c1 [Example 4, N-(3-((6-aniline-1H-pyrazolo[3,4-d]pyrimidin-1-yl)methyl)phenyl)acrylamide] | 1120 | – | 1.1 | 901 |
| C=CC(=O)Nc1cccc(Cn2ncc3cnc(Nc4ccc(F)cc4)nc32)c1 [Example 5, N-(3-((6-((4-fluorophenyl)amino)-1H-pyrazolo[3,4-d]pyrimidin-1-yl)methyl)phenyl)acrylamide] | 1800 | – | 3.7 | 1580 |
| C=CC(=O)Nc1cccc(Cn2ncc3cnc(Nc4ccc(N5CCOCC5)cc4)nc32)c1 [Example 6, N-(3-((6-((4-morpholinylphenyl)amino)-1H-pyrazolo[3,4-d]pyrimidin-1-yl)methyl)phenyl)acrylamide] | 3100 | – | 0.1 | 1000 |
| C=CC(=O)Nc1cccc(Cn2ncc3cnc(Nc4ccc(N5CCN(C)CC5)cc4)nc32)c1 [Example 7, N-(3-((6-((4-(4-methylpiperazin-1-yl)phenyl)amino)-1H-pyrazolo[3,4-d]pyrimidin-1-yl)methyl)phenyl)acrylamide] | 1080 | – | 6.1 | 942 |
| C/C=C/C(=O)Nc1cccc(Cn2ncc3cnc(Nc4cnn(CCOC)c4)nc32)c1 [Example 8, N-(3-((6-((1-(2-methoxy-ethyl)-1H-pyrazol-4-yl)amino)-1H-pyrazolo[3,4-d]pyrimidine-1-yl)methyl)phenyl)but-2-enamide] | 610 | – | 3 | 701 |
| C/C=C/C(=O)Nc1cccc(Cn2ncc3cnc(Nc4cnn(C)c4)nc32)c1 [Example 9, N-(3-((6-((1-methyl-1H-pyrazol-4-yl)amino)-1H-pyrazolo[3,4-d]pyrimidin-1-yl)methyl)phenyl)but-2-enamide] | 860 | – | 2.1 | 618 |
| C/C=C/C(=O)Nc1cccc(Cn2ncc3cnc(Nc4cnn(CCO)c4)nc32)c1 [Example 10, N-(3-((6-((1-(2-hydroxyethyl)-1H-pyrazol-4-yl)amino)-1H-pyrazolo[3,4-d]pyrimidin-1-yl)methyl)phenyl)but-2-enamide] | 960 | – | 0.7 | 940 |
| C/C=C/C(=O)Nc1cccc(Cn2ncc3cnc(Nc4ccccc4)nc32)c1 [Example 11, N-(3-((6-aniline-1H-pyrazolo[3,4-d]pyrimidin-1-yl)methyl)phenyl)but-2-enamide] | 690 | – | 1.4 | 830 |
| C/C=C/C(=O)Nc1cccc(Cn2ncc3cnc(Nc4ccc(F)cc4)nc32)c1 [Example 12, N-(3-((6-((4-fluorophenyl)amino)-1H-pyrazolo[3,4-d]pyrimidin-1-yl)methyl)phenyl)but-2-enamide] | 2310 | – | 0.2 | 1030 |
| C/C=C/C(=O)Nc1cccc(Cn2ncc3cnc(Nc4ccc(N5CCOCC5)cc4)nc32)c1 [Example 13, N-(3-((6-((4-morpholinylphenyl)amino)-1H-pyrazolo[3,4-d]pyrimidin-1-yl)methyl)phenyl)but-2-enamide] | 710 | – | 0.4 | 890 |
| C/C=C/C(=O)Nc1cccc(Cn2ncc3cnc(Nc4ccc(N5CCN(C)CC5)cc4)nc32)c1 [Example 14, N-(3-((6-((4-(4-methylpiperazin-1-yl)phenyl)amino)-1H-pyrazolo[3,4-d]pyrimidin-1-yl)methyl)phenyl)but-2-enamide] | 1310 | – | 0.9 | 274 |

Results, then the molecule that gave them:

| IC50 (JAK-2) [nM] | IC50 (JAK-3; differs from Table 5, read-out: JAK-3 inhibitory activity IC50) [nM] | IC50 (JAK-3; [1]) [nM] | IC50 (JAK-1) [nM] | SMILES |
| --- | --- | --- | --- | --- |
| 602 | – | 0.5 | 1540 | C=CC(=O)Nc1ccc(Cn2ncc3cnc(Nc4cnn(CCOC)c4)nc32)cc1 [Example 15, N-(4-((6-((1-(2-methoxyethyl)-1H-pyrazol-4-yl)amino)-1H-pyrazolo[3,4-d]pyrimidine-1-yl)methyl)phenyl)acrylamide] |
| 770 | – | 1.4 | 1410 | C=CC(=O)Nc1ccc(Cn2ncc3cnc(Nc4cnn(C)c4)nc32)cc1 [Example 16, N-(4-((6-((1-methyl-1H-pyrazol-4-yl)amino)-1H-pyrazolo[3,4-d]pyrimidine-1-yl)methyl)phenyl)acrylamide] |
| 846 | – | 2 | 1420 | C=CC(=O)Nc1ccc(Cn2ncc3cnc(Nc4cnn(CCO)c4)nc32)cc1 [Example 17, N-(4-((6-((1-(2-hydroxyethyl)-1H-pyrazol-4-yl)amino)-1H-pyrazolo[3,4-d]pyrimidin-1-yl)methyl)phenyl)acrylamide] |
| 1280 | – | 2.8 | 1990 | C=CC(=O)Nc1ccc(Cn2ncc3cnc(Nc4ccccc4)nc32)cc1 [Example 18, N-(4-((6-aniline-1H-pyrazolo[3,4-d]pyrimidin-1-yl)methyl)phenyl)acrylamide] |
| 1800 | – | 3.7 | 1580 | C=CC(=O)Nc1ccc(Cn2ncc3cnc(Nc4ccc(F)cc4)nc32)cc1 [Example 19, N-(4-((6-((4-fluorophenyl)amino)-1H-pyrazolo[3,4-d]pyrimidin-1-yl)methyl)phenyl)acrylamide] |
| 892 | – | 1.7 | 934 | C=CC(=O)Nc1ccc(Cn2ncc3cnc(Nc4ccc(N5CCOCC5)cc4)nc32)cc1 [Example 20, N-(4-((6-((4-morpholinylphenyl)amino)-1H-pyrazolo[3,4-d]pyrimidin-1-yl)methyl)phenyl)acrylamide] |
| 1800 | – | 0.2 | 2850 | C=CC(=O)Nc1ccc(Cn2ncc3cnc(Nc4ccc(N5CCN(C)CC5)cc4)nc32)cc1 [Example 21, N-(4-((6-((4-(4-methylpiperazin-1-yl)phenyl)amino)-1H-pyrazolo[3,4-d]pyrimidin-1-yl)methyl)phenyl)acrylamide] |
| 1250 | – | 2 | 918 | C/C=C/C(=O)Nc1ccc(Cn2ncc3cnc(Nc4cnn(CCOC)c4)nc32)cc1 [Example 22, N-(4-((6-((1-(2-methoxy-ethyl)-1H-pyrazol-4-yl)amino)-1H-pyrazolo[3,4-d]pyrimidine-1-yl)methyl)phenyl)but-2-enamide] |
| 697 | – | 0.1 | 940 | C/C=C/C(=O)Nc1ccc(Cn2ncc3cnc(Nc4cnn(C)c4)nc32)cc1 [Example 23, N-(4-((6-((1-methyl-1H-pyrazol-4-yl)amino)-1H-pyrazolo[3,4-d]pyrimidin-1-yl)methyl)phenyl)but-2-enamide] |
| 948 | – | 0.2 | 1120 | C/C=C/C(=O)Nc1ccc(Cn2ncc3cnc(Nc4cnn(CCO)c4)nc32)cc1 [Example 24, N-(4-((6-((1-(2-hydroxyethyl)-1H-pyrazol-4-yl)amino)-1H-pyrazolo[3,4-d]pyrimidin-1-yl)methyl)phenyl)but-2-enamide] |
| 1040 | – | 1.2 | 2400 | C/C=C/C(=O)Nc1ccc(Cn2ncc3cnc(Nc4ccccc4)nc32)cc1 [Example 25, N-(4-((6-aniline-1H-pyrazolo[3,4-d]pyrimidin-1-yl)methyl)phenyl)but-2-enamide] |
| 804 | – | 0.3 | 880 | C/C=C/C(=O)Nc1ccc(Cn2ncc3cnc(Nc4ccc(F)cc4)nc32)cc1 [Example 26, N-(4-((6-((4-fluorophenyl)amino)-1H-pyrazolo[3,4-d]pyrimidine-1-yl)methyl)phenyl)but-2-enamide] |
